≈ marks a conversion by molar mass, not a printed value.
Legend:
Format in all cases: in vivo
[1] = system: Mexican bean beetle (Epilachna varivestis, Muls.); assay: Mexican Bean Beetle Leaf Spray Test; design: key to pesticidal activity rating, Bean beetle: A: excellent control; B: partial control; C: no control
Experimental: Fourth instar larvae of the Mexican bean beetle (Epilachna varivestis, Muls.), reared on Tendergreen bean plants at a temperature of 80°±5° F. and 50±5 percent relative humidity, were the test insects.
The test compounds were formulated by diluting the stock suspension with water to give a suspension containing 500 parts of test compound per million parts of final formulation. Potted Tendergreen bean plants of standard height and age were placed on a revolving turntable and sprayed with 100-110 milliliters of test compound formulation by use of a DeVilbiss spray gun set at 10 psig air pressure. This application, which lasted 25 seconds, was sufficient to wet plants to run-off. As a control, 100-110 milliliters of a water-acetone-emulsifier solution containing no test compound were also sprayed on infested plants. When dry, the paired leaves were separated and each was placed in a 9 centimeter Petri dish lined with moistened filter paper. Five randomly selected larvae were introduced into each dish, and the dishes were closed. The closed dishes were labeled and held at a temperature of 80°±5° F. for 3 days. Although the larvae could easily consume the leaf within 24 to 48 hours, no more food was added. Larvae which were unable to move the length of the body, even upon stimulation, were considered dead.
In these tests the pesticidal activity of the compounds against aphid, mite, Southern Armyworm, Bean Beetle and House fly was rated as follows:
The LD50 values shown in the above Table II were determined by testing the compositions over an appropriate concentration range obtained by serial dilution of the stock suspension with water. The percent kill was plotted on log-probit graph paper versus parts per million concentration, and the LD50 read from an eye-fitted line drawn through the resultant points.

[2] = Peroral toxicity to mammals (rat); details: in vivo, po; rat, peroral, Table II; read-out: Rat P.O. LD50
Experimental: (§1) Certain of these compositions were also evaluated to determine their peroral toxicity to mammals. The animal selected for this experiment was the rat. The test results obtained are expressed in terms of the number of milligrams of composition per kilogram of weight of the animal required to achieve a mortality rate of 50 percent (LD50).

[3] = system: rat; assay: Peroral toxicity to mammals (rat); details: fraction of the toxicity of the methylcarbamoyl compound; rat P.O. LD50
Experimental: as §1

## CN(SC(Cl)(Cl)Cl)C(=O)ON=C1CSCCS1 [2-[(N-METHYL-N-TRICHLOROMETHANESULFENYL)-CARBAMOYLOXIMINO]-1,4-DITHIANE]
[1]; Epilachna varivestis, 72 h, leaf spray, Table II, read-out: Insect Toxicity, LD50, Mexican Bean beetle
  LC50: 10 µg/mL (≈ 28.1 µM)
[1]; from LD50 values of Table II
  insect toxicity on bean-beetle relative to the methylcarbamoyl composition: five-fold improvement
[1]; leaf spray, 500 parts per million, 3 days
  pesticidal activity rating, Bean beetle: A
[2]
  LD50: 149 mg/kg
[3]
  mammalian toxicity relative to the methylcarbamoyl compound: 1/10
